Test results reported in article PMC5831858, “Pharmacological characterisation of CR6086, a potent prostaglandin E2 receptor 4 antagonist, as a new potential disease-modifying anti-rheumatic drug” (Arthritis Research & Therapy, 2018).
Read-outs that look alike come from different tables or passages of the source.

Experiments:
[1] = test system: arthritic mice (collagen-induced arthritis model); assay: CIA in mice, second study: serum cytokines and signal limb histology; type: in vivo, mouse; conditions: 10 days
FP = FP (Homo sapiens, UniProt P43088); assay: Eicosanoid receptor FP binding; conditions: [^3H]PGF2α, HEK-293 cells, read-out: CR6086 Activity at 10µM
Chain of FP (P43088 whole entry): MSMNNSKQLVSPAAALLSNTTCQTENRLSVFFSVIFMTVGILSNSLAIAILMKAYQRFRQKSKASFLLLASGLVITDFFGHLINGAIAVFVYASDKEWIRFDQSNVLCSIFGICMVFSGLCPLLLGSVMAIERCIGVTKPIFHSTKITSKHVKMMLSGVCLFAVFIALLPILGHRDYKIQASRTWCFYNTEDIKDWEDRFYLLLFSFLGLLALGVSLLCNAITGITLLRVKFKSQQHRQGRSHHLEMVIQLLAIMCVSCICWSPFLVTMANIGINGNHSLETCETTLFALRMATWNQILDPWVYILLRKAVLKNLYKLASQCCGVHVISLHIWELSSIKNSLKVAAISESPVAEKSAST

5-HT5a = 5-HT5a (Homo sapiens, UniProt P47898); assay: Serotonin receptor 5-HT5a binding; conditions: [^3H]LSD, Human recombinant HEK-293 cells, read-out: CR6086 Activity at 10µM
Chain of 5-HT5a (P47898 whole entry): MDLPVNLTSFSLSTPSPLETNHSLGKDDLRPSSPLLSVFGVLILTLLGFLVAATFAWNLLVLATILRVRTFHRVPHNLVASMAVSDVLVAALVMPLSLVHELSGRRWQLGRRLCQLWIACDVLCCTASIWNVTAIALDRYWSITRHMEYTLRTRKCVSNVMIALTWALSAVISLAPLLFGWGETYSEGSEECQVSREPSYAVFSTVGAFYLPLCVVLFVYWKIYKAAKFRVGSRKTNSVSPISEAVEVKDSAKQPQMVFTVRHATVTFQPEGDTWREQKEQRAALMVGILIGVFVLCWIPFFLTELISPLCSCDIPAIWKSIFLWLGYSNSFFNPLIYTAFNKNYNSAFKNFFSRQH

5-HT6 = 5-HT6 (Homo sapiens, UniProt P50406); assay: Serotonin receptor 5-HT6 binding; conditions: [^3H]LSD, Human recombinant CHO cells, read-out: CR6086 Activity at 10µM
Chain of 5-HT6 (P50406 whole entry): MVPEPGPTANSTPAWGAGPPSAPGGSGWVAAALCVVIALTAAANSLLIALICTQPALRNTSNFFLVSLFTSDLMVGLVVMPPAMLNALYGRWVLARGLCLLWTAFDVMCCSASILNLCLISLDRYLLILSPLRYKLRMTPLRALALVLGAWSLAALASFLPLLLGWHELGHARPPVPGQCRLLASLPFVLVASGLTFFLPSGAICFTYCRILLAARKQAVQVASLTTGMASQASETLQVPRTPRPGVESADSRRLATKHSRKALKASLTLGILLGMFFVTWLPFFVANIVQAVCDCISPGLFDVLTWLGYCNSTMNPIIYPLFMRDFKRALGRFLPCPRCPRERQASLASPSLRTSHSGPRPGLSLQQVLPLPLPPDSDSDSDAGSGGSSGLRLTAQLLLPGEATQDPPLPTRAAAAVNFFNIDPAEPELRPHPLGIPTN

5-HT7 = 5-HT7 (Homo sapiens, UniProt P34969); assay: Serotonin receptor 5-HT7 binding; conditions: [^3H]LSD, Human recombinant CHO cells, read-out: CR6086 Activity at 10µM
Chain of 5-HT7 (P34969 whole entry): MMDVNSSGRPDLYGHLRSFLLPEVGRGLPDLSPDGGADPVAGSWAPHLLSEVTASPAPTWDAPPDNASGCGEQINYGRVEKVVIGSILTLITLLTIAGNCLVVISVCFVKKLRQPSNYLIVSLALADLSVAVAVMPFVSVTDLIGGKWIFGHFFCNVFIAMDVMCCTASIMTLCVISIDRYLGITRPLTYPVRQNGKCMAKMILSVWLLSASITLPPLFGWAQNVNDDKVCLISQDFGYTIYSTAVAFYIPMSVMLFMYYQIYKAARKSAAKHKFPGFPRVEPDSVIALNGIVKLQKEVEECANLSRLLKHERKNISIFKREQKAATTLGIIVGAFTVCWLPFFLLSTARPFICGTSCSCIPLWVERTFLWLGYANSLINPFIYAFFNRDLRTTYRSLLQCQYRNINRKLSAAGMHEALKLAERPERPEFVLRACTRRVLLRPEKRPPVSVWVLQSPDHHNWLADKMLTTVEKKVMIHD

MT1 (ML1A) = MT1 (ML1A) (Homo sapiens, UniProt P48039); assay: MT1 receptor binding; conditions: [^125I]2-iodomelatonin, Human recombinant CHO cells, read-out: CR6086 Activity at 10µM
Chain of MT1 (ML1A) (P48039 whole entry): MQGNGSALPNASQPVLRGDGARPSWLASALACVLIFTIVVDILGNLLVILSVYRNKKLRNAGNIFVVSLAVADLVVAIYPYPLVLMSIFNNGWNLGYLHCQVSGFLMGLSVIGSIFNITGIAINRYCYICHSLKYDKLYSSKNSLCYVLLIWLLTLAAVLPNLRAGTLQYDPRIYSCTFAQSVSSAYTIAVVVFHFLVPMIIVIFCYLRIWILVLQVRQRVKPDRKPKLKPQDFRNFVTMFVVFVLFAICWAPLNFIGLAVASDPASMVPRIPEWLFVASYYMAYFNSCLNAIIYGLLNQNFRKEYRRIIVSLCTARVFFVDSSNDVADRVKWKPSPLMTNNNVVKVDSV

ETA = ETA (Homo sapiens, UniProt P25101); assay: Endothelin receptor ETA binding; conditions: [^125I]endothelin-1, Human recombinant CHO cells, read-out: CR6086 Activity at 10µM
Chain of ETA (P25101 21-427): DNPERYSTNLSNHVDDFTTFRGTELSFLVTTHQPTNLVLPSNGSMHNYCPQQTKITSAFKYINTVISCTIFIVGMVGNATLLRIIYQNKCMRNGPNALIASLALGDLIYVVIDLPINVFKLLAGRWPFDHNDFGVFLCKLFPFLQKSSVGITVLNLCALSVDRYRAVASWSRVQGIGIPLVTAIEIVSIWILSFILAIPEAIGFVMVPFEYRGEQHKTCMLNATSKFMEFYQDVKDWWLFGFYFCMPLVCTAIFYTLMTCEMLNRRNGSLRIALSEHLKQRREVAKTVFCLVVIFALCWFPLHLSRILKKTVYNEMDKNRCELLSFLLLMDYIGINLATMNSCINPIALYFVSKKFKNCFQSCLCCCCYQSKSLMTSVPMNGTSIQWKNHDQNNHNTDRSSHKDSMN

NK2 = NK2 (Homo sapiens, UniProt P21452); assay: Neurokinin receptor NK2 binding; conditions: [^125I]NKA, Human recombinant CHO cells, read-out: CR6086 Activity at 10µM
Chain of NK2 (P21452 whole entry): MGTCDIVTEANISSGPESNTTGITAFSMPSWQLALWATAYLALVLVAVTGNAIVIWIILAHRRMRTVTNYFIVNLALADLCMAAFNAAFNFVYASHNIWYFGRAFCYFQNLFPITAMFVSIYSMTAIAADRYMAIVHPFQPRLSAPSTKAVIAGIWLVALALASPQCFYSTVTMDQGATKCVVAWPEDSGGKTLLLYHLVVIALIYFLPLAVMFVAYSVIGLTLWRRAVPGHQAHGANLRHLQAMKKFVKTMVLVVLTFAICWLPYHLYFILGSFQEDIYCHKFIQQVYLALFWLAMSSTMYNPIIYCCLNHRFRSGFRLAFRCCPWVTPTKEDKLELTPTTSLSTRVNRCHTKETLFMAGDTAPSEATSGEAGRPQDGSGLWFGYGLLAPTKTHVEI

NOP (ORL1) = NOP (ORL1) (Homo sapiens, UniProt P41146); assay: Opioid receptor NOP (ORL1) binding; conditions: [^3H]nociceptin, Human recombinant HEK-293 cells, read-out: CR6086 Activity at 10µM
Chain of NOP (ORL1) (P41146 whole entry): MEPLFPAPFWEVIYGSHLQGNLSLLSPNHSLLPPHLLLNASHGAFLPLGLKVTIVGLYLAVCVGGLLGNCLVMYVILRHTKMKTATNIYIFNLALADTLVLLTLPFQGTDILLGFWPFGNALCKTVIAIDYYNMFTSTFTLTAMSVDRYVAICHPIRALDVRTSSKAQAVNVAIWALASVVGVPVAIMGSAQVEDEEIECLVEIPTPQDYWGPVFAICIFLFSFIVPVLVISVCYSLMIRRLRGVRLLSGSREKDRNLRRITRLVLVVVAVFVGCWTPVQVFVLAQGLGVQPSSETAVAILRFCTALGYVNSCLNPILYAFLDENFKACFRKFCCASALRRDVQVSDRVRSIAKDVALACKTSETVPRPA

BB (non-selective) = assay: BB receptor (non-selective) binding; conditions: [^125I][Tyr^4]bombesin, Rat cerebral cortex
ER = assay: Nuclear receptor ER binding; conditions: [^3H]estradiol, MCF-7 cells
rat EP4 receptor = rat EP4 receptor (Rattus norvegicus, UniProt P43114); assay: EP4 radioligand binding assay ([^3H]PGE2), rat receptor; parameters: the cDNA encoding the full-length rat (NM_032076) or mouse (NM_001136079) EP4 receptors; host or cells: HEK293 (transient)
Chain of rat EP4 receptor (P43114 whole entry): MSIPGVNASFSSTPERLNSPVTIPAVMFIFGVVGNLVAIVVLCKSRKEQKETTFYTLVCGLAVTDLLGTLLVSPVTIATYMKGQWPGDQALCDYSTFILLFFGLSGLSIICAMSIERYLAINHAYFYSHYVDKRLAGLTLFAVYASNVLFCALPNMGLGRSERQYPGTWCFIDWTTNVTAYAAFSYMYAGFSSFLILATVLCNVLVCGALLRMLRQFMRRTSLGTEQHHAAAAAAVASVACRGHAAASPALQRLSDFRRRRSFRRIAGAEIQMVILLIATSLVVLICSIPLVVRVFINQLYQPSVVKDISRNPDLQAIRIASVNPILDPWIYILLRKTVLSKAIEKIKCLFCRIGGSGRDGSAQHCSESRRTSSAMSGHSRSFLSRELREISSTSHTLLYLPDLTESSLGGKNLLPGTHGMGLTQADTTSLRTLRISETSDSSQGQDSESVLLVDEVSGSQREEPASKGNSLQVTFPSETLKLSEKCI
Source text: For rodent EP4 receptor cloning, the cDNA encoding the full-length rat (NM_032076) or mouse (NM_001136079) EP4 receptors cloned in pCMV6 entry was provided by OriGene Inc. (TrueORF Gold, catalogue numbers RN206839 and MC216813; OriGene, Rockville, MD, USA). Expression of rat and mouse receptors was obtained by transfecting HEK293 cells with the respective vector using Lipofectamine 3000 reagent (Thermo Fisher Scientific) according to the manufacturer’s instructions.
Membranes expressing the human EP4 receptor were prepared from stably transfected HEK293 cell line. […] Protein content of the cell membrane suspension was determined using bovine serum albumin (BSA) as a standard.
Experimental procedures were performed according to the method of Abramovitz et al.. […] The residual [^3H]PGE2 binding was determined using a solid scintillation counter (TopCount; PerkinElmer) after at least 1 h of stabilisation. In saturation binding studies, isotherm-binding curves generated with six to eight different concentrations of [^3H]PGE2 (from 0.5 to 25 nM) were evaluated. […]
Specific binding to the receptors was defined as the difference between total binding and non-specific binding, as determined in the presence of an excess of unlabelled ligand. […] Competition curves were analysed to assess the half-maximal inhibitory concentration (IC50). […] The results of replicated curves were expressed as mean ± SEM.

[2] = 30 mg/kg oral daily, mean ± SEM
[3] = 60 mg/kg oral daily, mean ± SEM

O=C([O-])c1ccc(C2(NC(=O)[C@H]3CC4(CCN3Cc3ccc(C(F)(F)F)cc3)CC4)CC2)cc1.[Na+] [CR6086, Sodium (R)-4-(1-(6-(4-(trifluoromethyl)benzyl)-6-azaspiro[2.5]octane-5-carboxamido)cyclopropyl)benzoate]
IFNγ serum concentration [1, 2]: 1.79 ± 0.32 pg/mL | IL-10 serum concentration [1, 2]: 16.17 ± 1.95 pg/mL | IL-17 serum concentration [1, 2]: 2.36 ± 0.62 pg/mL | TNFα serum concentration [1, 2]: 34.37 ± 2.21 pg/mL | IL-10 serum concentration [1, 3]: 18.16 ± 2.65 pg/mL | IL-17 serum concentration [1, 3]: 0.92 ± 0.20 pg/mL | TNFα serum concentration [1, 3]: 33.67 ± 3.58 pg/mL | effect on IL-6 mean serum concentrations ([1]; 60 mg/kg oral once daily): returned towards normal levels | histological scores of the signal limb ([1]; 30 and 60 mg/kg oral once daily): acts as a disease modifier | inhibition at 10 µM (FP): < 20% | inhibition at 10 µM (5-HT5a): < 20% | inhibition at 10 µM (5-HT6): < 20% | inhibition at 10 µM (5-HT7): < 20% | inhibition at 10 µM (MT1 (ML1A)): < 20% | inhibition at 10 µM (ETA): < 20% | inhibition at 10 µM (NK2): < 20% | inhibition at 10 µM (NOP (ORL1)): < 20% | CR6086 Activity at 10µM (BB (non-selective)): IN (IN = < 20% displacement or inhibition (all tables)) | CR6086 Activity at 10µM (ER): IN (IN = < 20% displacement or inhibition (all tables)) | Ki (rat EP4 receptor; [^3H]PGE2 displacement, transiently transfected HEK293 membranes, read-out: Ki CR6086): 76.6 ± 12.3 nM | Ki (rat EP4 receptor; expressed as mass concentration, read-out: Ki value for the rat EP4 receptor (converted)): 73.2 nM
